Earlier results in US12357678B2, “Cancer stem cell targeted cancer vaccines” (priority 2012, dated 2025).

What was measured:
T cells = details: mutant vs wild type IL-13Rα2345-353
HLA-A2 = details: mutant vs wild type IL-13Rα2345-353
[1] = tested on: IL-13Ra2 positive, HLA-A2 positive glioma cells

ALPFGFILV (Amino acid residues 345-353 of IL-13 Receptor alpha mutation of W to A at position 345 and I to V at position 353) [IL-13Rα2345-353:1A9V, IL-13Rα2 345-353 with mutation of W to A at position 345 and I to V at position 353]
T cell response (immunogenicity) relative to wild type peptide (T cells): more robust T cell response | affinity for HLA-A2 relative to wild type peptide (HLA-A2): increased the affinity for HLA-A2 | killing of glioma cells by T cells stimulated with the peptide, relative to wild type ([1]; T cells stimulated with mutant vs wild type peptide): more effective at killing glioma cells

ELMLG EFLKL (ELMLGEFLKL; Amino acid residues 95-104 of Survivin with a methionine substitution at position 3) [SEQ ID NO:9, Survivin 95-104 with a methionine substitution at position 3]
activation of T cells cytotoxic to cancer cells (cancer cells): able to activate T cells that were cytotoxic to cancer cells | immunogenicity of survivin analog peptide (cancer cells): immunogenic

WLPFGFILI (Amino acid residues 345-353 of IL-13 Receptor alpha; listed as Homo sapiens) [IL-13Rα2345-353, Amino acid residues 345-353 of Interleukin-13 Receptor alpha]
lysis of glioma cells by CTL lines generated by stimulation of CD8+ cells with the peptide ([1]; IL-13Ra2 positive, HLA-A2 positive glioma cells, antigen-specific): efficiently lysed
